Measured values taken from patent publication US6503307B1, “Ink set, printing method, ink, printed article, printing apparatus, ink cartridge, recording unit, and process of forming polymeric compound films” (Canon Kabushiki Kaisha, priority 1999, dated 2003).

Key:
Solubility in water = format: physicochemical; details: highest concentration forming a uniform transparent aqueous solution
Excerpt: In Table 1, the water solubility is shown by the highest concentration of the compound for forming a uniform transparent aqueous solution.

[1] = Reactivity: time for gel formation on mixing 50% solutions; format: physicochemical; details: 50% solution of Group B compound with aqueous 50% solution of Compound A-1

Row | SMILES | Solubility (Solubility in water) [%] | Time for gel formation [1] [s]
1 | NC1C(O)OC(CO)C(O)C1O (stereo not drawn) [Compound B-4] | 20 | 600
2 | SCC(S)CS [Compound B-8] | >30 | 600
3 | CCC(CS)(CS)CS [Compound B-10] | >30 | 600
